Drawing on PubChem BioAssay (NCI), this text covers TGI and GI50 for eight molecules.

Experiment in all cases: DTP human tumour cell line panel, 48 h
In assay [1] the test system is DLD-1 colon.
Assay [2] concerns DMS 273 small cell lung.
The subject of assay [3] is HOP-18 NSCLC.
The subject of assay [4] is LXFL 529 NSCLC.
Assay [5] concerns M19-MEL melanoma.
Assay [6] relates to RXF-631 renal.
Assay [7] relates to XF 498 CNS.
Assay [8] concerns BT-549 breast.
For assay [9], the system named is MDA-N.

Structures are written as SMILES.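 Protocol summary: plate cells (96-well), add compound at 5 concentrations, incubate 48 h, interpolate endpoints linearly. GI50 marks 50% less growth. TGI denotes the concentration required for complete inhibition of growth.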

On to `COC(=O)c1ccc2n[se]nc2c1`, for which the TGI in [1], in [2], in [3], in [4], in [5] and in [6] was greater than 100 µM in each case. The TGI in assay [7] was greater than 100 µM.

As for `COc1ccc(NC(=O)CC(=O)n2nc(-c3ccccc3)c(N=Nc3ccc(C)cc3)c2-c2ccccc2)cc1`, the concentration for total growth inhibition (TGI) in assay [8] is greater than 58 µM; in [1], greater than 100 µM; in assay [2], greater than 100 µM; in assay [3], greater than 78.3 µM; in assay [4], greater than 100 µM; in assay [5] it was greater than 100 µM. Moreover, the total growth inhibition concentration (TGI) in assay [9] was greater than 100 µM; in assay [6], greater than 100 µM; in assay [7], 24.9 µM.

For `COC1=C(C(=O)OC(C)(C)C)C23CCCCC2(C(C(=O)OC(C)(C)C)=C(OC)C3C(=O)OC(C)(C)C)C1C(=O)OC(C)(C)C` (centres undefined), the TGI is greater than 100 µM in assay [1]; greater than 100 µM in assay [2]; greater than 100 µM in assay [3]; greater than 100 µM in assay [4]; greater than 100 µM in assay [5]; 35.3 µM in assay [6]. In [7], this molecule had a TGI greater than 100 µM.

Regarding `Nc1ccc(Cl)cc1.Nc1ccc(Cl)cc1.Nc1ccc(Cl)cc1.O=C([O-])C(=O)[O-].O=C([O-])C(=O)[O-].[H+].[Ru+5]`, the GI50 in assay [1] is greater than 43.5 µM; in [2], 0.087 µM; in assay [3], greater than 100 µM; in [4], less than 0.0272 µM; in assay [5] it was 0.0537 µM; in [7], greater than 87.2 µM. Also, the TGI in assay [1] is greater than 100 µM; in [2], greater than 100 µM; in assay [3] it was greater than 100 µM; in assay [4], greater than 100 µM; in assay [5], 2.15 µM; in [6], greater than 100 µM. This molecule displayed a TGI in assay [7] greater than 100 µM.

In the case of `Cn1c(=O)c(C2c3ccccc3Oc3c2c(=O)n(C)c2ccccc32)c(O)c2ccccc21` (centres undefined), the TGI in assay [1], in [2], in [3], in assay [4], in assay [5] and in assay [6] was greater than 100 µM throughout. The total growth inhibition concentration (TGI) in assay [7] was 75.9 µM.

In the case of `O=c1c2ccccc2oc2nccnc12`, the TGI in assay [1], in assay [2], in [3], in assay [4], in assay [5] and in [6] was greater than 100 µM in each case. Moreover, the TGI in [7] is greater than 100 µM.

With `Cc1cc(C)cc(NC(=O)CCC(=O)C2CCC/C2=N\NC(=O)C(=O)NN)c1` (centres undefined), the TGI in assay [1], in assay [2], in assay [3], in assay [4], in [5] and in assay [6] was greater than 100 µM in each case. Further, the TGI in assay [7] was greater than 100 µM.

Regarding `COc1ccc2c(c1)C(CCN)C(=O)N2` (centres undefined), the concentration for total growth inhibition (TGI) in assay [1], in assay [2], in assay [3], in [4], in assay [5] and in assay [6] was greater than 100 µM throughout. Also, the TGI in [7] was greater than 100 µM.

A word on the TGI: it is the concentration at which net growth stops. In general, GI50 refers to the concentration giving 50% growth inhibition.
